Where a name gives a salt, the structure may show the parent alone. Read-outs that look alike come from different tables or passages of the source.
Biological target: [^3 H]-mepyramine binding in brain homogenates (Rattus norvegicus, UniProt P31390)
Experiment: biochemical
Details: read-out: (^3 H)mepyramine rating: molar concentration required to inhibit by 50% the binding of [^3 H]mepyramine
[1] = in vitro, brain homogenates, smaller numbers indicate greater potency

[^3 H]-mepyramine binding in brain homogenates, sequence (P31390 whole entry): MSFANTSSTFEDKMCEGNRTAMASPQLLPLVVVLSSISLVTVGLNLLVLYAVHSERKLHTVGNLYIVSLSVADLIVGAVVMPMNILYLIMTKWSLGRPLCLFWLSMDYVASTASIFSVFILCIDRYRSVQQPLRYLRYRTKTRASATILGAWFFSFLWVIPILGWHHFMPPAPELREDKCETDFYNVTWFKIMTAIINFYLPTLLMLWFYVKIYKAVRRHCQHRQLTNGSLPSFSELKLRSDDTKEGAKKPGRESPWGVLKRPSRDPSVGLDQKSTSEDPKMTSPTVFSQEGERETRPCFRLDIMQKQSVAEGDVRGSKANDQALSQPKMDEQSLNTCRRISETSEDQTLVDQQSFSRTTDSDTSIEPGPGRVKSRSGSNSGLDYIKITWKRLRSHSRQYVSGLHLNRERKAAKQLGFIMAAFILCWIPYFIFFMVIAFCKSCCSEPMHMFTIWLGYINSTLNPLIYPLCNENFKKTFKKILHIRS

## CN(C)C[C@H]1c2ccccc2[C@@H](c2ccccc2)CN1C (relative stereo) [Example 3, 1,2,3,4-tetrahydro-2-methyl-1-dimethylaminomethyl-4-phenylisoquinoline dihydrochloride]
[1]
  IC50: 1800 nM

## CCNC[C@@H]1NC[C@H](c2ccccc2)c2ccccc21 (relative stereo) [Example 4, 1,2,3,4-tetrahydro-1-(ethylamino)methyl-4-phenylisoquinoline dihydrochloride]
[1]
  IC50: > 1000 nM

## CNC[C@@H]1NC[C@@H](c2ccccc2)c2ccccc21 (relative stereo) [Example 1 trans form, trans-1,2,3,4-tetrahydro-1-methylaminomethyl-4-phenylisoquinoline dihydrochloride]
  IC50: 78 nM

## CNC[C@@H]1NC[C@H](c2ccccc2)c2ccccc21 (relative stereo) [Example 1 cis form, cis-1,2,3,4-tetrahydro-1-methylaminomethyl-4-phenylisoquinoline dihydrochloride]
  IC50: 3500 nM

## CN(C)C[C@@H]1NC[C@H](c2ccccc2)c2ccccc21 (relative stereo) [Example 2, 1,2,3,4-tetrahydro-1-dimethylaminomethyl-4-phenylisoquinoline dihydrochloride]
[1]
  IC50: 2800 nM

From patent US4518779A, “1,2,3,4-Tetrahydro-1-aminomethyl-4-phenyl isoquinolines” (Pennwalt Corporation, priority 1982, dated 1985)
